The text below walks through data of ChEMBL document CHEMBL4351003, “Selective Toll-like receptor 7 agonists with novel chromeno[3,4-d]imidazol-4(1H)-one and 2-(trifluoromethyl)quinoline/ quinazoline-4-amine scaffolds” (Eur J Med Chem, 2019).

Calls of active or inactive are those of the source. No cut-off for these calls is given here.

The test system of series [1] is PBMC. Kind of series: Induction of IL-8 production in human PBMC at 10 ug/ml incubated for 24 hrs by flow cytometry analysis. It is filed as functional, cell-based.
The nature of series [2]: Cytotoxicity against human HEK293 cells transfected with human TLR7/8 assessed as reduction in cell viability incubated for 24 hrs by MTS assay. Type of series: cell-based. As to conditions: read-out: MNCC. In general terms: Formazan colour is commonly taken as a measure of viable cells.
The next series deals with T1, Toll-like receptor 7 (Homo sapiens, UniProt Q9NYK1).
T1 sequence (Q9NYK1 whole entry): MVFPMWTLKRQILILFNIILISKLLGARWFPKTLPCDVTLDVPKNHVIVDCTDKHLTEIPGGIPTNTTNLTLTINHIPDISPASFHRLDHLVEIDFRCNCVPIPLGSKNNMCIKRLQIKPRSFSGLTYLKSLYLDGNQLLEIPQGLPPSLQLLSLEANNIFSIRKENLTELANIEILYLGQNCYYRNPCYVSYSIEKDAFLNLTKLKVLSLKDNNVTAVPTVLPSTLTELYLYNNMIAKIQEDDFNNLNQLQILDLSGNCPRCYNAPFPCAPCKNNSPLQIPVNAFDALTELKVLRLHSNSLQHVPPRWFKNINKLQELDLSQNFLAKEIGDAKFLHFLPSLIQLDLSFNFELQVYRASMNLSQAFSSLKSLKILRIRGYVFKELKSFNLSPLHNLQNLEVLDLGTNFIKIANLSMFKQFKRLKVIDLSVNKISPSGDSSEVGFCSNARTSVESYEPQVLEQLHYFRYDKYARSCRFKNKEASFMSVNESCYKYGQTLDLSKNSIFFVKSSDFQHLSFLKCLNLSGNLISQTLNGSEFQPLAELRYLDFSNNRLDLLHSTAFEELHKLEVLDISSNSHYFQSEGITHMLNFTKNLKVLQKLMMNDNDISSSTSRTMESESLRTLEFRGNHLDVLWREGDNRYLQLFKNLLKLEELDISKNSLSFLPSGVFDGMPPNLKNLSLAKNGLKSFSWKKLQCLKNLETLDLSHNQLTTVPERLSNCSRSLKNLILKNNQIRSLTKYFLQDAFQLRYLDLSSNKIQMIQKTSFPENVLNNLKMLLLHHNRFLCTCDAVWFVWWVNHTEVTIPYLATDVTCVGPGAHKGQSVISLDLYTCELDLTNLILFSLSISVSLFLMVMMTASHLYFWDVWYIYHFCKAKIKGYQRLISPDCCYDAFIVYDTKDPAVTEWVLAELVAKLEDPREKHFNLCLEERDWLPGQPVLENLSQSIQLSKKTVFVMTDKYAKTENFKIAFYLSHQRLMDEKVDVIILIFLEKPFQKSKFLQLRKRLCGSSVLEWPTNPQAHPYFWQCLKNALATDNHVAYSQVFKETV
As to the kind of experiment: Agonist activity at human TLR7 in HEK293 cells cotransfected with SEAP reporter gene assessed as activity of SEAP incubated for 24 hrs by quanti-blue staining based SEAP reporter gene assay. Type of series: cell-based. The note with it: read-out: EC50. (In general: Reporter assays use an easily measured gene product as a stand-in for the process of interest.)

The target in series [3] is T2, Toll-like receptor 8 (Homo sapiens) (UniProt Q9NR97).
T2 sequence (whole entry): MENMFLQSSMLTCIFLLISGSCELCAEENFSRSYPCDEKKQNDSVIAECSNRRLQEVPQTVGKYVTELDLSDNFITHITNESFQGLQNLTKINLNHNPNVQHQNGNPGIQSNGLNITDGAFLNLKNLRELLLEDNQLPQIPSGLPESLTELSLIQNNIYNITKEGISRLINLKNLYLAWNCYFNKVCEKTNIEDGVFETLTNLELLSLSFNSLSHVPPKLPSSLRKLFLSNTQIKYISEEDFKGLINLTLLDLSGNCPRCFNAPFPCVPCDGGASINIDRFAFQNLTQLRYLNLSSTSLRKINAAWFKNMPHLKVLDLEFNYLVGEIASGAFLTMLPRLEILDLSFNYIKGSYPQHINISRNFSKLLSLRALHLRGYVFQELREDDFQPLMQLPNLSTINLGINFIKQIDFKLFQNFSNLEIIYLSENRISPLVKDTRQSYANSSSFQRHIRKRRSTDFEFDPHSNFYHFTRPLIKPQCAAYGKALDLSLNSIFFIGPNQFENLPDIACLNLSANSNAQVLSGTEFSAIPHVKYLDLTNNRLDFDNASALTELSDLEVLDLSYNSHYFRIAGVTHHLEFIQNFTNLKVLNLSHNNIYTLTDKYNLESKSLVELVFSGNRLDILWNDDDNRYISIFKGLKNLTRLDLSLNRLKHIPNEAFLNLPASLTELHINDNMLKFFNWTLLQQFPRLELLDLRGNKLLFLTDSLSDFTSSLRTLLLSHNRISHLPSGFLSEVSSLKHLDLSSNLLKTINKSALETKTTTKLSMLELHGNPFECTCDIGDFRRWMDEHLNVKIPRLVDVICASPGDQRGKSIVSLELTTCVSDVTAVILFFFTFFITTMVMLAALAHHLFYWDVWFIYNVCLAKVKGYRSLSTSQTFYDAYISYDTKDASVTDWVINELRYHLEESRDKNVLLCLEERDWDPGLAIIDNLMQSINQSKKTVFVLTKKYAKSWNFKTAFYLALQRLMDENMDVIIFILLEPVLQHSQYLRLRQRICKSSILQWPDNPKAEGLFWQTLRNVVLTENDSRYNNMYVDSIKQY
Kind of series: Agonist activity at human TLR8 in HEK293 cells cotransfected with SEAP reporter gene assessed as activity of SEAP incubated for 24 hrs by quanti-blue staining based SEAP reporter gene assay. Type of series: cell-based.

The subject of series [4] is PBMC. Kind of series: Induction of IL-12p70 production in human PBMC at 10 ug/ml incubated for 24 hrs by flow cytometry analysis. Type of series: functional, cell-based. Background: Flow cytometry measures light scatter and fluorescence of single cells or particles in a stream.
In series [5] the target is T3, Toll-like receptor 7 (Homo sapiens) (UniProt Q9NYK1).
T3 sequence (whole entry): T1 sequence (Q9NYK1 whole entry)
Kind of series: Antagonist activity at human TLR7 in HEK293 cells cotransfected with SEAP reporter gene assessed as activity of SEAP preincubated for 2 hrs followed by imiquimod addition further incubated for 24 hrs by quanti-blue staining based SEAP reporter gene assay. It is filed as cell-based.

The subject of series [6] is PBMC. Kind of series: Induction of IL-6 production in human PBMC at 10 ug/ml incubated for 24 hrs by flow cytometry analysis. Type of series: functional, cell-based.
In series [7] the test system is PBMC. Kind of series: Induction of TNFalpha production in human PBMC at 10 ug/ml incubated for 24 hrs by flow cytometry analysis. Type of series: functional, cell-based.

The EC50 is the concentration that produces a half-maximal response. Consider `FC(F)(F)c1nc(NC2CCCCC2)c2ccccc2n1`, for which the outcome in the series with PBMC [1] and in the series with PBMC [6] was Active. For the same compound, in series [2], the MNTC at 24 h amounted to 31.3 µM. On Toll-like receptor 7, the EC50 is 8.3 µM. Moreover, the outcome (in series [3]; in the series with PBMC [4]; in series [5]; in the series on PBMC [7]) was inactive.
In the case of `FC(F)(F)c1nc(NC2CC2)c2ccccc2n1`, the result in the series with PBMC [1] and in the series with PBMC [6] was Active. For the same compound, the MNTC at 24 h in series [2] was determined as 125 µM. The EC50 on Toll-like receptor 7 came to 16.8 µM. Besides, the result (in series [3]; in the series with PBMC [4]; in series [5]; in the series on PBMC [7]) was inactive.
Regarding `CC(C)Cn1cnc2c(=O)oc3ccc(O)cc3c21`, the result (in the series with PBMC [1]; in series [3]; with PBMC [4]; in series [5]; in the series with PBMC [6]; in the series with PBMC [7]) was inactive. Moreover, the MNTC at 24 h in series [2] was determined as 62.5 µM. For the same compound, at Toll-like receptor 7, the EC50 came out at 1.8 µM.
Consider `CC(C)CNc1cc(C(F)(F)F)nc2ccccc12`, for which the result with PBMC [1] and in the series with PBMC [6] was Active. The MNTC at 24 h in series [2] turned out to be 62.5 µM. In addition, the EC50 on Toll-like receptor 7 was 6.3 µM. The result (in series [3]; with PBMC [4]; in series [5]; in the series on PBMC [7]) was inactive.
